Assay [1] deals with KDR (phospho-KDR, VEGF165-stimulated HUVEC cells) (Homo sapiens (Human), UniProt P35968). Briefly: KDR autophosphorylation ELISA in HUVEC cells (Example G). It counts as cell-based. The settings on record: cellular activity; KDR autophosphorylation ELISA in HUVEC cells. A digest of the protocol: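 Read-out: phospho-KDR in cell lysates by DuoSet IC ELISA, normalised between VEGF-stimulated DMSO wells (100%) and unstimulated wells (0%). Human endothelial cells were starved overnight in serum-free medium, exposed to compound for 1 h, and then pulsed with 100 ng/mL VEGF165 for 5 min.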
Chain of KDR (phospho-KDR, VEGF165-stimulated HUVEC cells) (P35968 20-1356): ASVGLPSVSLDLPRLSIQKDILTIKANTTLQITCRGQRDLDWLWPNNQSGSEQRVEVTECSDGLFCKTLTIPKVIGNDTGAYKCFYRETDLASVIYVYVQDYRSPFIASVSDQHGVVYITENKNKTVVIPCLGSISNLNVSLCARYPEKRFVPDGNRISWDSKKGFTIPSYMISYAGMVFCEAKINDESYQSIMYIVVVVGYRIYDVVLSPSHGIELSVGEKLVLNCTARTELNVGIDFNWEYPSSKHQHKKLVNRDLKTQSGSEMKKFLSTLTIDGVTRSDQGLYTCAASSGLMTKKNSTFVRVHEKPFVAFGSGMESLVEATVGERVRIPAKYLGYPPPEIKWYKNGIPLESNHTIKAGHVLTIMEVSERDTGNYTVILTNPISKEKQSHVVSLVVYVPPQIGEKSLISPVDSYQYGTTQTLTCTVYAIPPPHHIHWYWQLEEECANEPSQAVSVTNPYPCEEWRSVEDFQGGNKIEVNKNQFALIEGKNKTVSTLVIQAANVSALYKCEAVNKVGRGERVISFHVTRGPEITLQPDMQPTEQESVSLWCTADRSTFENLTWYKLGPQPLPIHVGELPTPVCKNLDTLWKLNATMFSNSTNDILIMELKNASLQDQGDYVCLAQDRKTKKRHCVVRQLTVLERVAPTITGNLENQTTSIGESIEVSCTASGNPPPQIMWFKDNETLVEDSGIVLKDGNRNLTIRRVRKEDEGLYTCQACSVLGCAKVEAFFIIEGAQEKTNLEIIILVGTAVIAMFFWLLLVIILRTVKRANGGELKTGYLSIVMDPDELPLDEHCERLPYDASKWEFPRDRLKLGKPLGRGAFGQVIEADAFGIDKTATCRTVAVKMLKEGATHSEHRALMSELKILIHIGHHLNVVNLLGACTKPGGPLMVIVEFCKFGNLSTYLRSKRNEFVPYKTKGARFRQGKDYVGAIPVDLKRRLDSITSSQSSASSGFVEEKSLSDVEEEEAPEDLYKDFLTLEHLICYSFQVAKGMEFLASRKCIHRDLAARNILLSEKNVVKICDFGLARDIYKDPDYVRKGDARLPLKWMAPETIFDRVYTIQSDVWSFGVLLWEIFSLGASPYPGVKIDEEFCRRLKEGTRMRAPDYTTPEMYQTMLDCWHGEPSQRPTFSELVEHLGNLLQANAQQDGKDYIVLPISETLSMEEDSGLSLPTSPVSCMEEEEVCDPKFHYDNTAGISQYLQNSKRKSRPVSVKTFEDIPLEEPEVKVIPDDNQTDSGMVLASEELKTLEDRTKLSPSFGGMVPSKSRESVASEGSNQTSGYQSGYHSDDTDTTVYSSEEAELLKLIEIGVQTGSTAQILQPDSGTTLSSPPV

Assay [2] addresses Human MER (residues 528-999) (Homo sapiens (Human), UniProt Q12866). Briefly: Human Mer kinase assay, HTRF KinEase (Example C-2). It counts as biochemical. The settings on record: protocol of Example C-2 (other compounds). A digest of the protocol:
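HTRF KinEase TK assay with MER 528-999 (1 ng/well) in enzymatic buffer plus 5 mM MgCl2 and 1 mM DTT, biotinylated peptide substrate and ATP at Km (40 μM), 3% DMSO final, 60 min at room temperature. Stopped with EDTA detection mix (SA-XL665, TK antibody-Eu3+), read at 665/620 nm after 60 min; IC50 from 10-point 4-parameter fit, normalized to DMSO and 1 μM reference.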
(In general: Time-resolved FRET reads energy transfer from a long-lived donor to a nearby acceptor.)

A word on the IC50: it is the concentration needed to halve the response being measured. Higher therefore signals weaker potency in that assay.

Chain of Human MER (residues 528-999) (Q12866 528-999): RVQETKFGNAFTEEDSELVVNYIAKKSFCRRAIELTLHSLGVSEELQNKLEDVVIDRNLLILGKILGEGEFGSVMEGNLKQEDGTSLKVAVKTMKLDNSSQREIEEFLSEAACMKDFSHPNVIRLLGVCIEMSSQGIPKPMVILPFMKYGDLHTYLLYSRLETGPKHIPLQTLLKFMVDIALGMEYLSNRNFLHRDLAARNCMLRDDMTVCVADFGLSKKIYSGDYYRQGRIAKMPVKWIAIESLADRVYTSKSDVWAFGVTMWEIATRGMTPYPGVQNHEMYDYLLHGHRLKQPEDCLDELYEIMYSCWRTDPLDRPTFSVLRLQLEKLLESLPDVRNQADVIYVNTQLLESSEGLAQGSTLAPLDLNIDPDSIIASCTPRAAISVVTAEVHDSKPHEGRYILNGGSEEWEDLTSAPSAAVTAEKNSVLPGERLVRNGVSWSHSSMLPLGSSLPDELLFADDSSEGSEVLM

Consider `Cc1cc(F)ccc1-c1c(C)n(C)cc(C(=O)Nc2ccc(Oc3ccnc4cc(C)c(F)nc34)c(F)c2)c1=O` [Compound 429, N-[3-fluoro-4-[(6-fluoro-7-methyl-1,5-naphthyridin-4-yl)oxy]phenyl]-5-(4-fluoro-2-methylphenyl)-1,6-dimethyl-4-oxopyridine-3-carboxamide], for which the results for the IC50 in assay [1] and in assay [2] were over 300 nM and under 100 nM, respectively.

For `Cc1cc(F)ccc1-c1c(C)nnc(C(=O)Nc2ccc(Oc3ccnc4cc(C)c(F)nc34)c(F)c2)c1O` [Compound 430, N-[3-fluoro-4-[(6-fluoro-7-methyl-1,5-naphthyridin-4-yl)oxy]phenyl]-5-(4-fluoro-2-methylphenyl)-4-hydroxy-6-methylpyridazine-3-carboxamide], the IC50 was over 300 nM in assay [1] and under 100 nM in assay [2].

For the molecule `COc1nc2c(Oc3ccc(NC(=O)c4c(C)nc(C)c(-c5ccc(F)cc5)c4O)cc3F)ccnc2cc1O` [Compound 431, N-[3-fluoro-4-[(7-hydroxy-6-methoxy-1,5-naphthyridin-4-yl)oxy]phenyl]-5-(4-fluorophenyl)-4-hydroxy-2,6-dimethylpyridine-3-carboxamide], the IC50 in assay [1] and in assay [2] was under 100 nM in each case.

In the case of `COCCOc1cc2nccc(Oc3ccc(NC(=O)c4c(C)nc(C)c(-c5ccc(F)cc5)c4O)cc3F)c2nc1OC` [Compound 432, N-[3-fluoro-4-[[6-methoxy-7-(2-methoxyethoxy)-1,5-naphthyridin-4-yl]oxy]phenyl]-5-(4-fluorophenyl)-4-hydroxy-2,6-dimethylpyridine-3-carboxamide], the IC50 in assay [1] and in assay [2] was under 100 nM throughout.

For `COc1cc2nccc(Oc3ccc(NC(=O)c4cn(C5CC5)c(C)c(-c5ccc(F)cc5)c4=O)cc3F)c2nc1OC` [Compound 433, 1-cyclopropyl-N-[4-[(6,7-dimethoxy-1,5-naphthyridin-4-yl)oxy]-3-fluorophenyl]-5-(4-fluorophenyl)-6-methyl-4-oxopyridine-3-carboxamide], the results for the IC50 in assay [1] and in assay [2] were over 300 nM and under 100 nM, respectively.

On to `COc1cc2nccc(Oc3ccc(NC(=O)c4cn(C5CC5)c(C)c(-c5ccc(F)cc5)c4=O)cc3)c2nc1OC` [Compound 434, 1-cyclopropyl-N-[4-[(6,7-dimethoxy-1,5-naphthyridin-4-yl)oxy]phenyl]-5-(4-fluorophenyl)-6-methyl-4-oxopyridine-3-carboxamide], for which the IC50 is over 300 nM in assay [1] and under 100 nM in assay [2].

With `COc1ccc2nccc(Oc3ccc(NC(=O)c4cn(C5CC5)c(C)c(-c5ccc(F)cc5)c4=O)cc3F)c2n1` [Compound 435, 1-cyclopropyl-N-[3-fluoro-4-[(6-methoxy-1,5-naphthyridin-4-yl)oxy]phenyl]-5-(4-fluorophenyl)-6-methyl-4-oxopyridine-3-carboxamide], the IC50 in assay [1] was over 300 nM; in assay [2], under 100 nM.

With `COCCOc1nc2c(Oc3ccc(NC(=O)c4cnc(C)c(-c5ccc(F)cc5)c4O)cc3F)ccnc2cc1C` [Compound 436, N-[3-fluoro-4-[[6-(2-methoxyethoxy)-7-methyl-1,5-naphthyridin-4-yl]oxy]phenyl]-5-(4-fluorophenyl)-4-hydroxy-6-methylpyridine-3-carboxamide], the IC50 in assay [1] and in assay [2] was under 100 nM throughout.

On to `COCCOc1nc2c(Oc3ccc(NC(=O)c4cnc(C)c(-c5ccc(F)cc5)c4O)cc3)ccnc2cc1C` [Compound 437, 5-(4-fluorophenyl)-4-hydroxy-N-[4-[[6-(2-methoxyethoxy)-7-methyl-1,5-naphthyridin-4-yl]oxy]phenyl]-6-methylpyridine-3-carboxamide], for which the IC50 in assay [1] and in assay [2] was under 100 nM in each case.

Take `Cc1cc2nccc(Oc3ccc(NC(=O)c4cnc(C)c(-c5ccc(F)cc5)c4O)cc3F)c2nc1OCCCN1CCOCC1` [Compound 438, N-[3-fluoro-4-[[7-methyl-6-(3-morpholin-4-ylpropoxy)-1,5-naphthyridin-4-yl]oxy]phenyl]-5-(4-fluorophenyl)-4-hydroxy-6-methylpyridine-3-carboxamide]: the IC50 in assay [1] and in assay [2] was under 100 nM each time.

The record behind these values is patent publication US12371428B2 (Exelixis, Inc., priority 2019, dated 2025).
